Results as given in patent US20250288704A1, “CXCR4-LIGANDS FOR DIAGNOSTIC AND THERAPEUTIC USE AND PRECURSORS THEREOF” (priority 2021, published 2025).
Where two headings read alike, the source gives them in different places. Values belong to the molecule of their own block, whether it stands above or below them. Positions of bridges follow the written chain, without caps; N, C: chain ends. Non-standard residues stand in square brackets, D forms with d. Residues, ends and D or L forms follow the SMILES beside them. Groups on a side chain read outwards from the residue. Chains are numbered I, II in the order given. *: point of attachment. X9 = NCCNCC(CNCCN)C(=O)NC[C@@H](NC(=O)CC[C@@H](NC(=O)N[C@H](CCC(=O)O)C(=O)O)C(=O)O)C(=O)*; X2 = OC[C@H]1O[C@@H](O[C@H]2[C@H](O)[C@@H](O)[C@H](*)O[C@@H]2CO)[C@H](O)[C@@H](O)[C@H]1O; X8 = NCCNCC(CNCCN)C(=O)NC[C@@H](NC(=O)CCC(NC(=O)N[C@H](CCC(=O)O)C(=O)O)C(=O)O)C(=O)*; X5 = CC(C)(C)[Si](F)(c1ccc(C[N+](C)(C)CC(=O)*)cc1)C(C)(C)C; DOTA = O=C(O)CN1CCN(CC(=O)O)CCN(CC(=O)*)CCN(CC(=O)O)CC1; 2Nal = N[C@@H](Cc1ccc2ccccc2c1)C(=O)O; dNMeOrn = CN[C@H](CCCN)C(=O)O; d(hCys) = N[C@H](CCS)C(=O)O; Mercaptoacetyl = O=C(CS)*; X4 = OCC1OC(*)C(O)C(O)C1O; 4Abz = Nc1ccc(C(=O)O)cc1; dDap = NC[C@@H](N)C(=O)O; Ahx = NCCCCCC(=O)O

What was measured:
CXCR4 [1] = target: T1, CXCR4 (Homo sapiens, UniProt P61073); assay: Determination of inverse IC50 (invIC50): radiolabeled peptide displaced by Fc-131 on Jurkat cells
[2] = Octanol/PBS partition coefficient (logD7.4); format: physicochemical; details: n-octanol/PBS pH 7.4, radiolabeled compound
Description: The tubes were vortexed at maximum speed for 3 min to ensure equilibrium before centrifugation at 15.000×g for 5 min on a Biofuge 15 from Heraeus Holding GmbH (Osterode, Germany). An aliquot of 100 μL of each fraction was measured in the γ-counter and the log D7.4 calculated as follows: […]

[3] = tested on: CXCR4-expressing Chem_1 cells; assay: Determination of internalization, dual tracer with 125I-Fc-131; format: cell-based; details: for Cell-bound [%] / Internalized [%]: of total cellular activity
In short: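 Chem_1 cells grown in DMEM-F12 with 10% FBS at 37 °C; wells (n=3 per time point) received medium or AMD3100 (1 mM stock) to block receptors. Unbound, surface-bound and NaOH-lysed internalized fractions were γ-counted; data corrected for non-specific internalization and referred to standard ligand specific internalization.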

[4] = tested on: Jurkat tumor-bearing CB-17 SCID mice; assay: Biodistribution in Jurkat tumor-bearing CB-17 SCID mice; format: in vivo; details: 1 h p.i., 1 mouse
In short: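 CB17-SCID mice bore subcutaneous Jurkat xenografts (2-3×10^7 cells in Matrigel, shoulder), used at 5-8 mm tumor diameter. About 0.5-20 MBq (0.02-0.20 nmol) of 125I-, 177Lu-, 99mTc-, 18F- or 68Ga-labeled ligand given by tail vein; organs weighed and γ-counted after set times.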

CXCR4 [5] = target: T1, CXCR4; assay: Determination of IC50: competition with 125I-Fc-131 on CXCR4-positive Jurkat cells; format: binding; set-up: CXCR4-positive Jurkat T lymphocyte cells were grown in Gibco's RPMI 1640 GlutaMAX medium; endogenous in cells; host or cells: Jurkat T lymphocyte cells (whole cells in suspension, 400.000 per tube);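 note: test compound at 10^−5 to 10^−11 M competed for 2 h at 8 °C with the radioligand on 400,000 cells per well, bound versus free activity measured by γ-counting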
[6] = Biodistribution in Daudi xenograft bearing CB-17 SCID mice; format: in vivo; details: mouse, iv, total radioactivity, 1 h p.i., CB-17 SCID female mice
[7] = 2,000 pmol cold substance co-injected
[8] = co-injection of 1,000 μmol (so in the source) cold substance vs 36 pmol

T1 sequence (P61073 whole entry): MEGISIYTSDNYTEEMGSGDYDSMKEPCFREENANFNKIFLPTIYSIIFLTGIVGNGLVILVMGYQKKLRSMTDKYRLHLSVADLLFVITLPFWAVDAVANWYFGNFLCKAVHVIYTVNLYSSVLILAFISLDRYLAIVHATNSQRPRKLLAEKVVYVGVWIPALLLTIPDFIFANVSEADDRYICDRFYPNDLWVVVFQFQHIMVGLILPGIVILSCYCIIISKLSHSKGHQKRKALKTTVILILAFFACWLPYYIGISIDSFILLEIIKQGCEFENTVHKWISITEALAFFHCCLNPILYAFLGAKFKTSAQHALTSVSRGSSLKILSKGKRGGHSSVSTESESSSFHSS

invIC50 [nM] (CXCR4 [1]; radiolabeled compound displaced by Fc-131, Jurkat cells): No
logD7.4 [2]: −1.84 ± 0.01 (8)
Molecule: CPCR4-HYNIC [In Literature: 99mTc-CXCR4-L; hydrazino-nicotinic acid attached directly at the D-Orn2 side chain of CPCR4, reference compound]
Internalization [% Fc-131] ([3]; 90 min): 29 (90 min) % Fc-131

Molecule: C[C@@H](NC(=O)[C@@H](CCCNC(=N)N)NC(=O)[C@@H](CN)NC(=O)[C@@H](CNC(=O)C(CNCCN)CNCCN)NC(=O)CCC(NC(=O)N[C@H](CCC(=O)O)C(=O)O)C(=O)O)C(=O)Nc1ccc(C(=O)NCCC[C@@H]2C(=O)N[C@@H](CCCNC(=N)N)C(=O)N[C@@H](Cc3ccc4ccccc4c3)C(=O)NCC(=O)N[C@H](Cc3ccc(O)cc3)C(=O)N2C)cc1 (stereo partly drawn) [Tc-CXCR4-15] (cyclo([2Nal]G[dY][dNMeOrn]([4Abz-dA-dR-dDap-X8])R))
IC50 (CXCR4 [1]): 3.69 ± 1.32 nM
logD7.4 [2]: −3.60 ± 0.02 (8)
Internalized in relation to 125I-Fc-131 [%] ([3]; 30 min): 214 ± 11.7%
Cell-bound [%] ([3]; 30 min): 4.35 ± 0.16%
Internalized [%] ([3]; 30 min): 12.6 ± 0.34%
Internalization [% Fc-131] ([3]; 90 min): 232 (90 min) % Fc-131
Internalized in relation to 125I-Fc-131 [%] ([3]; 90 min): 232 ± 15.3%
Cell-bound [%] ([3]; 90 min): 3.42 ± 0.27%
Internalized [%] ([3]; 90 min): 17.9 ± 1.06%

Molecule: C[C@@H](NC(=O)[C@@H](CCCNC(=N)N)NC(=O)[C@@H](CN)NC(=O)CCCCCNC(=O)[C@@H](CNC(=O)CN1CCN(CC(=O)O)CCN(CC(=O)O)CCN(CC(=O)O)CC1)NC(=O)[C@@H](CCS[C@@H]1O[C@H](CO)[C@@H](O[C@@H]2O[C@H](CO)[C@H](O)[C@H](O)[C@H]2O)[C@H](O)[C@H]1O)NC(=O)C[N+](C)(C)Cc1ccc([Si](F)(C(C)(C)C)C(C)(C)C)cc1)C(=O)Nc1ccc(C(=O)NCCC[C@@H]2C(=O)N[C@@H](CCCNC(=N)N)C(=O)N[C@@H](Cc3ccc4ccccc4c3)C(=O)NCC(=O)N[C@H](Cc3ccc(O)cc3)C(=O)N2C)cc1 [CXCR4-SiFA-7 [Ga]] (I: X5-[d(hCys)](X2)[dDap](DOTA)[Ahx][dDap][dR][dA][4Abz] / II: cyclo([dY][dNMeOrn]R[2Nal]G); amide I:C-II:2)
uptake in liver compared to biodistribution with 36 pmol [4, 7]: 70%
uptake in spleen compared to biodistribution with 36 pmol [4, 7]: 61%
uptake in tumor compared to biodistribution with 36 pmol [4, 7]: 40%
Blood activity level raised by [4, 8]: 310%
tumor uptake compared to un-supplemented injection [4, 8]: 180%
uptake in liver compared to un-supplemented injection [4, 8]: 121%
uptake in muscle compared to un-supplemented injection [4, 8]: 226%
uptake in pancreas compared to un-supplemented injection [4, 8]: 196%
uptake in spleen compared to un-supplemented injection [4, 8]: 114%
logD7.4 [2]: −1.95 ± 0.05 (8)
IC50 (CXCR4 [5]; unlabeled or cold (natGa/natLu) compound vs 125I-Fc-131, Jurkat cells): 6.23 ± 1.57 nM
Internalized in relation to 125I-Fc-131 [%] ([3]; 30 min): 837 ± 51.4%
Cell-bound [%] ([3]; 30 min): 0.11 ± 0.29%
Internalized [%] ([3]; 30 min): 38.9 ± 1.09%
Internalization [% Fc-131] ([3]; 90 min): 1029 % Fc-131
Internalized in relation to 125I-Fc-131 [%] ([3]; 90 min): 1029 ± 66.7%
Cell-bound [%] ([3]; 90 min): 0 ± 0.41%
Internalized [%] ([3]; 90 min): 50.0 ± 1.12%

Molecule: C[C@@H](NC(=O)[C@@H](CCCNC(=N)N)NC(=O)[C@@H](CN)NC(=O)[C@@H](CO)NC(=O)[C@@H](CCSC1OC(CO)C(O)C(O)C1O)NC(=O)[C@@H](CCSC1OC(CO)C(O)C(O)C1O)NC(=O)CS)C(=O)Nc1ccc(C(=O)NCCC[C@@H]2C(=O)N[C@@H](CCCNC(=N)N)C(=O)N[C@@H](Cc3ccc4ccccc4c3)C(=O)NCC(=O)N[C@H](Cc3ccc(O)cc3)C(=O)N2C)cc1 (stereo partly drawn) [Tc-CXCR4-10] (I: Mercaptoacetyl-[d(hCys)](X4)[d(hCys)](X4)[dS][dDap][dR][dA][4Abz] / II: cyclo([2Nal]G[dY][dNMeOrn]R); amide I:C-II:4)
IC50 (CXCR4 [1]): 5.13 ± 1.81 nM
logD7.4 [2]: −2.32 ± 0.02 (7)
Internalized in relation to 125I-Fc-131 [%] ([3]; 30 min): 226 ± 10.2%
Cell-bound [%] ([3]; 30 min): 6.75 ± 0.76%
Internalized [%] ([3]; 30 min): 18.8± 0.66%
Internalization [% Fc-131] ([3]; 90 min): 267 (90 min) % Fc-131
Internalized in relation to 125I-Fc-131 [%] ([3]; 90 min): 267 ± 8.94%
Cell-bound [%] ([3]; 90 min): 6.06 ± 0.34%
Internalized [%] ([3]; 90 min): 31.7 ± 0.52%

Molecule: C[C@@H](NC(=O)[C@@H](CCCNC(=N)N)NC(=O)[C@@H](CN)NC(=O)CCCCCNC(=O)[C@@H](CNC(=O)C(CNCCN)CNCCN)NC(=O)CC[C@@H](NC(=O)N[C@H](CCC(=O)O)C(=O)O)C(=O)O)C(=O)Nc1ccc(C(=O)NCCC[C@@H]2C(=O)N[C@@H](CCCNC(=N)N)C(=O)N[C@@H](Cc3ccc4ccccc4c3)C(=O)NCC(=O)N[C@H](Cc3ccc(O)cc3)C(=O)N2C)cc1 [Tc-CXCR4-16] (cyclo([2Nal]G[dY][dNMeOrn]([4Abz-dA-dR-dDap-Ahx-X9])R))
IC50 (CXCR4 [1]): 6.08 ± 1.03 nM
logD7.4 [2]: −2.70 ± 0.04 (8)
Internalized in relation to 125I-Fc-131 [%] ([3]; 30 min): 230 ± 10.7%
Cell-bound [%] ([3]; 30 min): 3.36 ± 0.45%
Internalized [%] ([3]; 30 min): 15.0 ± 0.31%
Internalization [% Fc-131] ([3]; 90 min): 284 (90 min) % Fc-131
Internalized in relation to 125I-Fc-131 [%] ([3]; 90 min): 284 ± 10.4%
Cell-bound [%] ([3]; 90 min): 3.53 ± 0.21%
Internalized [%] ([3]; 90 min): 19.8 ± 0.15%

Molecule: C[C@@H](NC(=O)[C@@H](CCCNC(=N)N)NC(=O)[C@@H](CO)NC(=O)[C@@H](CO)NC(=O)[C@@H](CO)NC(=O)CS)C(=O)Nc1ccc(C(=O)NCCC[C@@H]2C(=O)N[C@@H](CCCNC(=N)N)C(=O)N[C@@H](Cc3ccc4ccccc4c3)C(=O)NCC(=O)N[C@H](Cc3ccc(O)cc3)C(=O)N2C)cc1 [Tc-CXCR4-1] (I: Mercaptoacetyl-[dS][dS][dS][dR][dA][4Abz] / II: cyclo([dY][dNMeOrn]R[2Nal]G); amide I:C-II:2)
tissue uptake at 1 h ([6]; Blood, read-out: % iD/g Blood): 0.83 %ID/g
tissue uptake at 1 h ([6]; Heart, read-out: % iD/g Heart): 0.54 %ID/g
tissue uptake at 1 h ([6]; Intestine, read-out: % iD/g Intestine): 1.12 %ID/g
tissue uptake at 1 h ([6]; Kidney, read-out: % iD/g Kidney): 4 %ID/g
tissue uptake at 1 h ([6]; Liver, read-out: % iD/g Liver): 3.54 %ID/g
tissue uptake at 1 h ([6]; Lung, read-out: % iD/g Lung): 1.79 %ID/g
tissue uptake at 1 h ([6]; Muscle, read-out: % iD/g Muscle): 0.16 %ID/g
tissue uptake at 1 h ([6]; Pancreas, read-out: % iD/g Pancreas): 0.22 %ID/g
tissue uptake at 1 h ([6]; Spleen, read-out: % iD/g Spleen): 1.09 %ID/g
tissue uptake at 1 h ([6]; Stomach, read-out: % iD/g Stomach): 0.86 %ID/g
tissue uptake at 1 h ([6]; Tumor, read-out: % iD/g Tumor): 1.41 %ID/g
IC50 (CXCR4 [5]): 20.6 ± 7.52 nM
